Here are results for five molecules from article PMC3731424 (Biochemistry, 2013).

Series [1] can be described thus: Hydration equilibrium of the carbonyl compounds in aqueous solution. Format: physicochemical. The following applies: from 1H NMR spectra.
The target of series [2] is T1, Actinomadura R39 DD-peptidase (Actinomadura sp., UniProt P39045). Format: biochemical.
Another series deals with B. subtilis PBP4a (Bacillus subtilis, UniProt P39844). Briefly: Inhibition of B. subtilis PBP4a, competition with substrate 14. Format: biochemical.
Series [3] concerns the target T1, Actinomadura R39 DD-peptidase. Format: biochemical. This is another data set of the same source.
The conditions of series [4]: literature estimate; cited from earlier work.
The conditions of series [5]: cited from earlier work.

Each structure is given as a SMILES string. Where two headings read alike, the source gives them in different places.

T1 sequence (P39045 50-538): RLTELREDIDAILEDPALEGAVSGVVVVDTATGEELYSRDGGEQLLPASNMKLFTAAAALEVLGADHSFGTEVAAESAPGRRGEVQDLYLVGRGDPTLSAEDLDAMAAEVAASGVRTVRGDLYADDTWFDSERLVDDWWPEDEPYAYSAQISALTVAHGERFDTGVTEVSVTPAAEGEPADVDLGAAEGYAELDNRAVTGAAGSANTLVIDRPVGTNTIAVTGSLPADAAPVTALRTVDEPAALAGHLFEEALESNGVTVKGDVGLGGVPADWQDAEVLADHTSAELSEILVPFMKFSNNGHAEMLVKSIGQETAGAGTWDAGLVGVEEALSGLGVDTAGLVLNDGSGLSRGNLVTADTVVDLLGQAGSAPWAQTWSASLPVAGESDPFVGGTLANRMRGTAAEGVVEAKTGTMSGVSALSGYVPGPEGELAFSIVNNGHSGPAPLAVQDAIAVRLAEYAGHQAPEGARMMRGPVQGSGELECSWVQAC

Consider `C[C@H](C=O)NC(=O)CCCC[C@@H](N)C(=O)O` [Compound 11], for which the “KH (hydration equilibrium constant [IOH2]/[I])” value in series [1] is on record as 30. Also, the “Time dependence of inhibition, R39 DD-peptidase” value in series [2] is “No time dependence”. In addition, on B. subtilis PBP4a, the “Time dependence of inhibition, PBP4a” value is on record as “No time dependence”.
As usually defined, the Ki is a dissociation constant, usually derived from enzyme kinetics or from competition with a known ligand. In the case of `CC(NC(=O)CCCC[C@@H](N)C(=O)O)C(=O)C(F)(F)F` (stereo partly drawn) [Compound 12, D-α-Aminopimelyl-(1,1,1-trifluoro-3-amino)butan-2-one], in series [2], the inhibitory constant (Ki) is 370 nM and the “Time dependence of inhibition, R39 DD-peptidase” value is given as “No time dependence”. At B. subtilis PBP4a, the inhibition constant Ki was found to be 13500 nM and the “Time dependence of inhibition, PBP4a” value is “No time dependence”. Besides, in series [3], the affinity corresponds to a Ki of 170 nM.
What is called Km is the concentration of substrate that gives half-maximal velocity. In the case of `C[C@@H](SC(=O)CNC(=O)Cc1ccccc1)C(=O)O` [Compound 14, (Phenylacetyl)glycyl-D-thiolactate, reference compound], the Michaelis-Menten constant (Km) on B. subtilis PBP4a (read-out: Km of the substrate, PBP4a, 20 mM MOPS pH 7.50, 25 °C) is 440 ± 80 µM.
Consider `CC(=O)C(F)(F)F` [trifluoroacetone], for which, in series [4], the “KH, lower limit estimate” value is recorded as at least 35.
A word on the pKa: it is the pH at which an ionisable group is half protonated. Turning to `OCC(F)(F)F` [trifluoroethanol], the pKa in series [5] is 12.4.
